Laboratory results reported in patent publication US5977077A, “Xanthone analogs for the treatment of infectious diseases” (Interlab Corporation, priority 1996, dated 1999).
In brackets after ≈: the same amount, converted by molar mass. Where two headings read alike, the source gives them in different places.

Tests used:
[1] = test system: Plasmodium falciparum (D6 strain); assay: In vitro anti-malarial activity, [3H]-ethanolamine incorporation; format: cell-based; conditions: for IC50: Plasmodium falciparum; for anti-malarial potency relative to 2,3,4,5,6-pentahydroxyxanthone: in words
Procedure: The D6 strain of P. falciparum was cultured in Group A^+ human erythrocytes and suspended at a 3.3% hematocrit in RPMI-1640 (Gibco, Grand Island, N.Y.) (containing 4 g/L glucose, 50 mg/L gentamicin and 10% group A^+ human serum), buffered with 25 mM HEPES and 25 mM NaHCO3 (Larrey, 1989). Cultures were maintained at 37° C. in a gas mixture of 5% oxygen, 5% CO2, and 90% nitrogen.
The in vitro anti-malarial activities of 2,3,4,5,6-pentahydroxyxanthone and other formula X1 compounds were measured by the [^3 H]-ethanolamine incorporation method as described in Elabbadi et al., 1992, with minor modifications. [^3 H]-ethanolamine was obtained from American Radiolabeled Chemicals, Inc., St. Louis, Mo. Experiments were conducted in 96 well plates in a total volume of 200 μl at a final red blood cell concentration of 3.3% (v/v). An initial parasitemia of 0.2 to 0.5% was attained by addition of normal uninfected red cells. Radiolabeled ethanolamine was added after 48 hours of incubation and the experiment was terminated after 72 hours by collecting the cells onto glass fiber filters with an automated multiwell harvester.
Stock solutions of the various formula X1 compounds were dissolved in DMSO at a concentration of 1 mM and diluted in complete medium (including 10% human serum) to provide 10× stock concentrations in the range of 1 to 10,000 nM. The concentration of the formula X1 compound giving 50% inhibition of label incorporation (IC50) relative to control (i.e., drug-free) conditions was calculated from the dose-response curve.

Leishmania donovani [2] = conditions: reported by Grogl et al. (1992); cited from earlier work
Leishmania donovani [3] = assay: In vitro anti-leishmania activity, radiolabeled thymidine uptake assay; format: cell-based; conditions: for IC50: Leishmania donovani
Procedure: Briefly, promastigotes were cultivated at 25° C. in Schneiders medium supplemented with 20% inactivated fetal calf serum and 100 μg/mL of gentamicin. Cells were maintained in log phase by seeding at 1×10^6 /mL with subculturing when cultured densities approached 4×10^7 /mL before reaching their maximal density. For the assay, early log phase promastigotes were counted on a hemacytometer and resuspended at a concentration of 1-2×10^6 cell/mL in assay media (Schneiders medium plus 10% fetal bovine serum). Ten-fold serial dilutions of each test compound were prepared as described above and added to 180 μL of the parasite suspension. After incubation for 24 hours at 25° C., methyl-^3 H-thymidine was added to each sample for a final concentration of 1-2 μCi per well. Each sample was then incubated for an additional 18 hours prior to harvesting. After this incubation time, each sample was aspirated onto a filter mat, washed thoroughly with deionized water, dried and then counted in a scintillation counter with scintillation cocktail.

[4] = test system: Candida albicans (clinical isolate); assay: Anti-Candida activity, minimum inhibitory concentration by visual inspection; format: cell-based; conditions: 15-18 hour incubation, 35° C., read-out: MIC against Candida albicans
Procedure: The minimum inhibitory concentration (MIC) of formula X1 compounds against a clinical isolate of Candida albicans was determined using the following method. […] The determination of this concentration is made by visual inspection; there is no visible growth in a tube containing the MIC of the formula X1 compound whereas visible growth is present in tubes containing sub-MIC concentrations of the compound.
Candida albicans was grown to midlog-phase in Luria-Bertani broth (10 grams Bacto-tryptone, 5 grams Bacto-yeast extract and 10 grams NaCl per liter) and then inoculated into sterile test tubes containing LB broth to an initial density of 10^3 /ml. The formula X1 compound to be tested is dissolved in dimethylsulfoxide (DMSO) at a concentration of 10 mM and added to each tube at serial dilutions (1 μM, 10 μM, 25 μM, 50 μM, 100 μM and 0 μM). The tubes are incubated at 35° C. for 15-18 hours and then visually inspected.

[5] = D6 strain, 72 h, read-out: anti-malarial activity IC50
[6] = Table 1, D6 strain, 72 h, read-out: IC50, μM vs. Plasmodium
[7] = Table 2, read-out: IC50, mg/ml vs. Leishmania
[8] = promastigotes, read-out: anti-leishmanial activity IC50
[9] = D6, 72 h, read-out: IC50, μM vs. Plasmodium

SMILES	IC50 [1, 5] [µM]	IC50 [1, 6] [µM]	IC50 (Leishmania donovani [3]; [7]) [mg/mL]	also measured
CC(=O)Oc1cc2c(=O)c3ccc(OC(C)=O)c(OC(C)=O)c3oc2c(OC(C)=O)c1OC(C)=O [2,3,4,5,6-pentaacetoxyxanthone]	~0.075	0.075		anti-malarial potency relative to 2,3,4,5,6-pentahydroxyxanthone [1]: several times more potent
O.O.O.O.O.O.O.O.O.O=C([O-])[C@@H]1[O][Sb](=[O])([O][Sb]2(=[O])[O][C@H]([C@H](O)CO)[C@H](O)[C@H](C(=O)[O-])[O]2)[O][C@H]([C@H](O)CO)[C@@H]1O.[Na+].[Na+].[Na+] (stereo partly drawn) [Pentostam]				IC50 values of commonly used anti-leishmanial drugs (Leishmania donovani [2]): 0.1 to 2 mg/mL
O=c1c2cc(O)c(O)cc2oc2cc(O)c([C@@H]3O[C@H](CO)[C@@H](O)[C@H](O)[C@H]3O)c(O)c12 [Mangiferin, reference compound]		50	> 0.05	
O=c1c2ccccc2oc2cc(O)cc(O)c12 [1,3-dihydroxyxanthone, 1,3-dihydroxyxanthone]		> 100		
O=c1c2ccc(O)c(O)c2oc2c(O)c(O)c(O)cc12 [2,3,4,5,6-pentahydroxyxanthone]	0.4 to 0.5	0.4 to 0.5	0.0015	IC50 (Leishmania donovani [3]; [8]): ~5 µM; anti-leishmanial activity IC50 (Leishmania donovani [3]; promastigotes, value in mg/ml): ~1 µg/mL; MIC [4]: ~37.5 µM (≈ 10.4 µg/mL)
O=c1c2cc(O)c(O)c(O)c2oc2cc(O)cc(O)c12 [1,3,5,6,7-pentahydroxyxanthone, 1,3,5,6,7-pentahydroxy-xanthone]		1		
CCN(CC)CCCC(C)Nc1ccnc2cc(Cl)ccc12 (stereo not drawn) [Chloroquine, reference compound]				IC50 ([1]; D6, 72 h, read-out: anti-malarial activity IC50): ~0.02 µM
O=c1c2ccc(O)c(O)c2oc2c(O)c(O)ccc12 [3,4,5,6-Tetrahdroxyxanthone, 3,4,5,6-Tetrahdroxy-xanthone]		10		
COc1cc2c(=O)c3ccc(OC)c(OC)c3oc2c(OC)c1OC [2,3,4,5,6-pentamethoxyxanthone]	> 100	> 100		anti-malarial potency relative to 2,3,4,5,6-pentahydroxyxanthone [1]: essentially eliminated the anti-malarial activity
O=c1c2cc(O)c(O)c(O)c2oc2cc(O)c(O)c(O)c12 [1,2,3,5,6,7-Hexahydroxyxanthone, 1,2,3,5,6,7-Hexahydroxy-xanthone]		25 to 50		
COc1c(O)cc2oc3cc(O)c(CC=C(C)C)c(O)c3c(=O)c2c1CC=C(C)C [Mangostin, reference compound]			0.00041	IC50 [1, 9]: 5 µM; IC50 (Leishmania donovani [3]; read-out: anti-leishmanial activity IC50): 0.00041 mg/mL; IC50 (Leishmania donovani [3]; [8]): 1 µM
O=c1c2ccccc2oc2ccccc12 [Xanthone]				IC50 [1, 9]: 10 µM
O=c1c2cc(O)c(O)c(O)c2oc2c(O)c(O)c(O)cc12 [2,3,4,5,6,7-hexahydroxyxanthone]	0.075	0.075	0.0015	IC50 (Leishmania donovani [3]; [8]): ~5 µM; MIC [4]: ~37.5 µM (≈ 11 µg/mL)
